Results as given in patent US20070117743A1, “New antitumoral compounds” (priority 2003, published 2007).
Where a SMILES comes first, the peptide text is derived from it. Bridges are numbered along the chain shown (N, C = ends). [ ]: non-standard residue; d: D form. The star is where a group is joined. Bip = N[C@@H](Cc1ccc(-c2ccccc2)cc1)C(=O)O; d(aIle) = CC[C@H](C)[C@@H](N)C(=O)O; d(aThr) = C[C@@H](O)[C@@H](N)C(=O)O; Hexanoyl(5-Me) = CC(C)CCCC(=O)*; Phg = N[C@H](C(=O)O)c1ccccc1; Orn = NCCC[C@H](N)C(=O)O; Dhb = C/C=C(\N)C(=O)O

Experiments:
Assay type in all cases: cell-based, human
DU-145 = test: SRB colorimetric assay of cell growth and viability, DU-145; settings: DU-145; 48 hours exposure
SK-BR-3 = test: SRB colorimetric assay of cell growth and viability, SK-BR-3; settings: SK-BR-3; 48 hours exposure
LoVo = test: SRB colorimetric assay of cell growth and viability, LoVo; settings: LOVO, 48 hours exposure; for CC50: read-out: LC50 LOVO
IGROV-ET = test: SRB colorimetric assay of cell growth and viability, IGROV-ET; settings: IGROV-ET, 48 hours exposure; for CC50: read-out: LC50 IGROV-ET
HeLa = test: SRB colorimetric assay of cell growth and viability, HeLa; settings: HELA, 48 hours exposure; for CC50: read-out: LC50 HELA
HT-29 = test: SRB colorimetric assay of cell growth and viability, HT-29; settings: HT-29, 48 hours exposure; for GI50: read-out: GI50 HT-29; for CC50: read-out: LC50 HT-29
SK-MEL-28 = test: SRB colorimetric assay of cell growth and viability, SK-MEL-28; settings: MEL-28, 48 hours exposure; for CC50: read-out: LC50 MEL-28
HeLa-APL = test: SRB colorimetric assay of cell growth and viability, HeLa-APL; settings: HELA-APL, 48 hours exposure; for CC50: read-out: LC50 HELA-APL
LoVo-Dox = test: SRB colorimetric assay of cell growth and viability, LoVo-Dox; settings: LOVO-DOX, 48 hours exposure; for CC50: read-out: LC50 LOVO-DOX
Summary of the method: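 After 48 hours continuous exposure to samples spanning 10 to 10^−8 μg/mL, biomass was quantified by sulforhodamine B staining of TCA-fixed cells (OD 490 nm). Cells, 5×10^3 per well in RPMI 1640 10% FBS, had attached 18 hours first; GI, TGI and LC derived from triplicate wells.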

IGROV-1 = test: SRB colorimetric assay of cell growth and viability, IGROV-1; settings: IGROV; 48 hours exposure
K-562 = test: SRB colorimetric assay of cell growth and viability, K-562; settings: K-562, 48 hours exposure; for CC50: read-out: LC50 K-562
PANC-1 = test: SRB colorimetric assay of cell growth and viability, PANC-1; settings: PANC-1, 48 hours exposure; for CC50: read-out: LC50 PANC-1
A-549 = test: SRB colorimetric assay of cell growth and viability, A-549; settings: A-549, 48 hours exposure; for GI50: read-out: GI50 A-549; for CC50: read-out: LC50 A-549

Row | Compound | GI50 (DU-145) [µM] | LC50 (concentration causing 50% net cell kill) (DU-145) [µM] | TGI DU-145 (DU-145) [Molar] | GI50 (SK-BR-3) [µM] | LC50 (SK-BR-3) [µM] | TGI SK-BR-3 (SK-BR-3) [Molar] | GI50 (LoVo) [µM] | TGI LOVO (LoVo) [Molar] | CC50 (LoVo) [µM] | GI50 (IGROV-ET) [µM] | TGI IGROV-ET (IGROV-ET) [Molar] | CC50 (IGROV-ET) [µM] | GI50 (HeLa) [µM] | TGI HELA (HeLa) [Molar] | CC50 (HeLa) [µM] | TGI HT-29 (HT-29) [Molar] | GI50 (HT-29) [µM] | CC50 (HT-29) [µM] | GI50 (SK-MEL-28) [µM] | TGI MEL-28 (SK-MEL-28) [Molar] | also measured
1 | C/C=C1\NC(=O)[C@H](Cc2ccc(-c3ccccc3)cc2)NC(=O)[C@@H](C(C)C)NC(=O)[C@@H]([C@@H](C)CC)NC(=O)[C@H](NC(=O)[C@H](NC(=O)[C@H](CCCN)NC(=O)[C@H]2CCCN2C(=O)[C@H](NC(=O)[C@@H](NC(=O)[C@@H](NC(=O)[C@H](NC(=O)CCCC(C)C)C(C)C)[C@@H](C)O)C(C)C)C(C)C)[C@@H](C)CC)[C@@H](C)OC(=O)[C@H](C(C)C)NC1=O [Compound 86, [Bip^3]-KF] ({Hexanoyl(5-Me)}-[dV]TV[dV][dP][Orn][d(aIle)][d(aThr)][d(aIle)][dV][Bip][Dhb]V; ester 8-C) | 0.124 | 0.527 | 2.56E−07 | 0.0289 | 5.07 | 1.79E−07 | 0.0637 | 2.89E−07 | 4.68 | 0.15 | 1.00E−06 | ≥ 6.43 | 0.177 | 8.17E−07 | 3.9 | 3.73E−07 | 0.129 | 5.07 | 0.183 | 4.11E−07 | CC50 (SK-MEL-28): 2.48 µM; GI50 (HeLa-APL): 0.424 µM; TGI HELA-APL (HeLa-APL): 1.65E−06 Molar; CC50 (HeLa-APL): 6.07 µM; GI50 (LoVo-Dox): 0.0733 µM; TGI LOVO-DOX (LoVo-Dox): 2.69E−07 Molar; CC50 (LoVo-Dox): ≥ 6.43 µM; GI50 (IGROV-1): 0.181 µM; LC50 (concentration causing 50% net cell killing) (IGROV-1): ≥ 6.43 µM; TGI IGROV (IGROV-1): 5.23E−07 Molar; GI50 (K-562): 1.1 µM; TGI K-562 (K-562): 2.32E−06 Molar; CC50 (K-562): 4.87 µM; GI50 (PANC-1): 0.984 µM; TGI PANC-1 (PANC-1): 2.17E−06 Molar; CC50 (PANC-1): 4.77 µM; TGI A-549 (A-549): 2.87E−07 Molar; GI50 (A-549): 0.125 µM; CC50 (A-549): 0.81 µM
2 | C/C=C1\NC(=O)[C@H](c2ccccc2)NC(=O)[C@@H](C(C)C)NC(=O)[C@@H]([C@@H](C)CC)NC(=O)[C@H](NC(=O)[C@H](NC(=O)[C@H](CCCN)NC(=O)[C@H]2CCCN2C(=O)[C@H](NC(=O)[C@@H](NC(=O)[C@@H](NC(=O)[C@H](NC(=O)CCCC(C)C)C(C)C)[C@@H](C)O)C(C)C)C(C)C)[C@@H](C)CC)[C@@H](C)OC(=O)[C@H](C(C)C)NC1=O [Compound 87, [Phg^3]-KF] ({Hexanoyl(5-Me)}-[dV]TV[dV][dP][Orn][d(aIle)][d(aThr)][d(aIle)][dV][Phg][Dhb]V; ester 8-C) | 1.9 | 1.9 | 1.90E−06 | 0.748 | 1.87 | 1.19E−06 | 0.957 | 1.90E−06 | 1.9 | 1.29 | 1.90E−06 | 1.9 | 1.9 | 1.90E−06 | 1.9 | 1.90E−06 | 1.58 | 1.9 | 1.9 | 1.90E−06 | CC50 (SK-MEL-28): 1.9 µM; GI50 (HeLa-APL): 1.9 µM; TGI HELA-APL (HeLa-APL): 1.90E−06 Molar; CC50 (HeLa-APL): 1.9 µM; GI50 (LoVo-Dox): 0.513 µM; TGI LOVO-DOX (LoVo-Dox): 1.32E−06 Molar; CC50 (LoVo-Dox): 1.9 µM; GI50 (IGROV-1): 0.919 µM; LC50 (concentration causing 50% net cell killing) (IGROV-1): 1.9 µM; TGI IGROV (IGROV-1): 1.90E−06 Molar; GI50 (K-562): 1.9 µM; TGI K-562 (K-562): 1.90E−06 Molar; CC50 (K-562): 1.9 µM; GI50 (PANC-1): 1.9 µM; TGI PANC-1 (PANC-1): 1.90E−06 Molar; CC50 (PANC-1): 1.9 µM; TGI A-549 (A-549): 1.90E−06 Molar; GI50 (A-549): 1.9 µM; CC50 (A-549): 1.9 µM
